Results from PMC4980831 (Arzneimittel-Forschung, 2009).

Key:
PDE5 = PDE5 (Homo sapiens, UniProt O76074); assay: IMAP fluorescence polarization PDE assay; type: biochemical
PDE11 = PDE11 (Homo sapiens, UniProt Q9HCR9); assay: IMAP fluorescence polarization PDE assay; type: biochemical
PDE11, sequence (Q9HCR9 whole entry): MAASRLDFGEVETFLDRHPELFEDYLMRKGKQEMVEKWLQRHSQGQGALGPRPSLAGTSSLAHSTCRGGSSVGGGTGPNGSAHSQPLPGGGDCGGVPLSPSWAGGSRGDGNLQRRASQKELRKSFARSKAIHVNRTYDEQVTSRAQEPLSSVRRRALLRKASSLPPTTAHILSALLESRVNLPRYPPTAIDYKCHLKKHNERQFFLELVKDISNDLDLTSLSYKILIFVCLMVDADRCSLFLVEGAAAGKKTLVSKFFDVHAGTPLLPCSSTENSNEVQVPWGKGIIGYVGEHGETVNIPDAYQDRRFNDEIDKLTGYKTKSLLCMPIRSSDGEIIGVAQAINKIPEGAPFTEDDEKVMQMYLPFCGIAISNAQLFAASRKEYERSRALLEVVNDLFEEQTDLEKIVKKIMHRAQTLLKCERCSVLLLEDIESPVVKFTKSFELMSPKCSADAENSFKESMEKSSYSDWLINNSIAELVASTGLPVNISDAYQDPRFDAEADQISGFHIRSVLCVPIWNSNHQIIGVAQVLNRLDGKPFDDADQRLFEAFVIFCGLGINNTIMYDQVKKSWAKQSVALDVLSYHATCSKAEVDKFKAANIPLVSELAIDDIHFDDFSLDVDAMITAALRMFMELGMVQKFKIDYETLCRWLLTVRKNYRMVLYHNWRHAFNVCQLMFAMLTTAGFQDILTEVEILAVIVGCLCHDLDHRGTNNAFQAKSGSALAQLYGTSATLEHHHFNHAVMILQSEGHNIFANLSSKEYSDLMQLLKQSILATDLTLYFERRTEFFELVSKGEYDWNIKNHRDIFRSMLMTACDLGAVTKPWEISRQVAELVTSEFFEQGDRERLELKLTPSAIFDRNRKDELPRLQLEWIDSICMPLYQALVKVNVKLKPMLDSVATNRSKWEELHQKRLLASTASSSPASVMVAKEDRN

SMILES	IC50 (PDE5) [µM]	IC50 (PDE11) [µM]
CC1=C(CC(=O)O)c2cc(F)ccc2/C1=C\c1ccc(S(C)(=O)=O)cc1 [Exisulind, reference compound]	295 ± 1.11	> 300
CCN1C(=O)[C@@H]2Cc3c([nH]c4ccccc34)[C@@H](c3cc(OC)ccc3OC)N2C1=S [IX, (5R,11aS)-2-ethyl-1-oxo-5-(2,5-dimethoxyphe-nyl)-5,6,11,11a-tetrahydro-1H-imidazo[1′,5′:1,6] pyrido[3,4-b]indole-3 (2H)-thione]	78.6 ± 1.14	> 100
CCN1C(=O)[C@H]2Cc3c([nH]c4ccccc34)[C@H](c3cc(OC)ccc3OC)N2C1=S [X, (5S,11aR)-2-ethyl-1-oxo-5-(2,5-dimethoxy-phenyl)-5,6,11,11a-tetrahydro-1H-imidazo [1′,5′:1,6]pyrido[3,4-b]indole-3 (2H)-thione]	> 100	> 100
COC(=O)[C@@H]1Cc2c([nH]c3ccccc23)[C@@H](c2cc(OC)ccc2OC)N1 [IV, Methyl (1R,3S)-1-(2,5-dimethoxyphenyl)-2,3,4,9-tetrahydro-1H-β-carboline-3-carboxylate]	17.4 ± 1.09	> 100
COC(=O)[C@@H]1Cc2c([nH]c3ccccc23)[C@H](c2cc(OC)ccc2OC)N1 [III, Methyl (1S,3S)-1-(2,5-dimethoxyphenyl)-2,3,4,9-tetrahydro-1H-β-carboline-3-carboxylate]	14.3 ± 1.09	> 100
CCN1C(=O)[C@@H]2Cc3c([nH]c4ccccc34)[C@@H](c3cc(OC)ccc3OC)N2C1=O [VIII, (5R,11aS)-2-Ethyl-5-(2,5-dimethoxyphenyl)-5,6,11,11a-tetrahydro-1H-imidazo[1′,5′:1,6]pyrido [3,4-b]indole-1,3(2H)-dione]	87.4 ± 1.1	> 100

Continued, values first:

IC50 (PDE5) [µM]	IC50 (PDE11) [µM]	SMILES
5 ± 1.14	> 100	CCN1C(=O)[C@H]2Cc3c([nH]c4ccccc34)[C@@H](c3cc(OC)ccc3OC)N2C1=O [V, (5R,11aR)-2-Ethyl-5-(2,5-dimethoxyphenyl)-5,6,11,11a-tetrahydro-1H-imidazo[1′,5′:1,6]pyrido [3,4-b]indole-1,3(2H)-dione]
3.9 ± 1.09	> 100	COC(=O)[C@H]1Cc2c([nH]c3ccccc23)[C@@H](c2cc(OC)ccc2OC)N1 [I, Methyl (1R,3R)-1-(2,5-dimethoxyphenyl)-2,3,4,9-tetrahydro-1H-β-carboline-3-carboxylate]
> 100	> 100	CCN1C(=O)[C@@H]2Cc3c([nH]c4ccccc34)[C@H](c3cc(OC)ccc3OC)N2C1=O [VII, (5S,11aS)-2-Ethyl-5-(2,5-dimethoxyphenyl)-5,6,11,11a-tetrahydro-1H-imidazo[1′,5′:1,6]pyrido [3,4-b]indole-1,3(2H)-dione]
> 100	> 100	CCN1C(=O)[C@H]2Cc3c([nH]c4ccccc34)[C@H](c3cc(OC)ccc3OC)N2C1=O [VI, (5S,11aR)-2-Ethyl-5-(2,5-dimethoxyphenyl)-5,6,11,11^a-tetrahydro-1H-imidazo[1′,5′:1,6]pyrido [3,4-b]indole-1,3(2H)-dione]
> 100	> 100	COC(=O)[C@H]1Cc2c([nH]c3ccccc23)[C@H](c2cc(OC)ccc2OC)N1 [II, Methyl (1S,3R)-1-(2,5-dimethoxyphenyl)-2,3,4,9-tetrahydro-1H-β-carboline-3-carboxylate]
